This note sets out measurements from ChEMBL document CHEMBL1144180, “Phenylethyl cinnamides: a new series of alpha-glucosidase inhibitors from the leaves of Aegle marmelos” (Bioorg Med Chem Lett, 2008).

Calls of active or inactive are those of the source. The calls are words filed in the database; no cut-off is given here.

Assay [1] can be described thus: Inhibition of alpha-glucosidase at 10.0 ug/ml.
A short description of assay [2]: Inhibition of alpha-glucosidase at 1.25 ug/ml.
The nature of assay [3]: Inhibition of alpha-glucosidase at 2.5 ug/ml.
Assay [4] is described as follows: Inhibition of alpha-glucosidase at 5.0 ug/ml.
Assay [5] is described as follows: Inhibition of alpha-glucosidase.

`CC(C)=CCOc1ccc(/C=C/NC(=O)/C=C/c2ccccc2)cc1`: the inhibition stood at 30.1% in assay [1], 1.3% in assay [2], 8.1% in assay [3] and 13.2% in assay [4].

`COc1ccc([C@H](O)CNC(=O)/C=C/c2ccccc2)cc1`: the inhibition in assay [1] worked out at 36%; in assay [2] it was 5.3%; in assay [3], 11.2%; in assay [4], 20.9%.

In assay [1], `COc1ccc([C@@H](CNC(=O)/C=C/c2ccccc2)OC)cc1` displayed an inhibition of 12.6%. Besides, the outcome in assay [2], in assay [3] and in assay [4] was inactive.

Turning to `COc1ccc([C@@H](CNC(=O)/C=C/c2ccccc2)O[C@@H]2O[C@H](CO)[C@@H](O)[C@H](O)[C@H]2O)cc1`, the inhibition in assay [1] came to 17.6%; in assay [2] it was 4.6%; in assay [3] it was 6.1%; in assay [4], 11.6%.

On to `COc1ccc(/C=C/NC(=O)/C=C/c2ccccc2)cc1` [ANHYDROAEGELINE], for which the inhibition in assay [1] was found to be 56.5%; in assay [2], 1.7%; in assay [3], 7.5%; in assay [4], 25.2%. In addition, in assay [5], the IC50 is 35.8 µM.

In the case of `COc1ccc([C@@H](CNC(=O)/C=C\c2ccccc2)O[C@@H]2O[C@H](CO)[C@@H](O)[C@H](O)[C@H]2O)cc1`, the inhibition is 8.8% in assay [1] and 3.4% in assay [4]. The outcome in assay [2] and in assay [3] was inactive.

For the compound `COc1ccc([C@H](O)CNC(=O)c2ccccc2)cc1`, the inhibition in assay [1] was found to be 13.5%; in assay [2], 1.5%; in assay [3], 7.8%; in assay [4] it was 11.4%.

In the case of `CC(C)=CCOc1ccc(CCNC(=O)/C=C/c2ccccc2)cc1`, the inhibition was 19.7% in assay [1] and 15.9% in assay [4]. The outcome in assay [2] and in assay [3] was inactive.

What is called inhibition is the relative decrease from the control value, in per cent. Low readings indicate little suppression, high ones strong suppression. Usually IC50 stands for the concentration needed to halve the response being measured. A low value points to greater potency in that assay.
